Holding throughout (assay type): in vivo
In one assay the test system is Boophilus microplus. In words: Boophilus microplus test (BOOPMI injection). To be noted: for activity (100% = none of the ticks has laid any fertile eggs): 20 μg/animal, injection into the abdomen, after 7 days. The essentials: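 Ticks injected in the abdomen with compound in DMSO, then held in a climatized room. Effect scored after 7 days as % reduction in fertile egg laying, 100% meaning no fertile eggs.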

A further assay relates to Musca domestica. In words: Musca domestica test (MUSCDO). To be noted: 100 ppm, after 2 days. As for the experimental part:
Musca domestica Test (MUSCDO)
Solvent: Dimethyl Sulphoxide
To produce a suitable preparation of active compound, 10 mg of active compound are mixed with 0.5 ml of dimethyl sulphoxide and the concentrate is diluted with water to the desired concentration. Vessels containing a sponge treated with the active compound preparation of the desired concentration are populated with adult Musca domestica.
After 2 days, the kill in % is determined 100% means that all flies have been killed; 0% means that none of the flies have been killed.

Assay [1] concerns cat fleas (Ctenocephalides felis, fully sensitive laboratory strain). The assay can be described thus: Contact test against fleas in-vitro (CTECFE contact). To be noted: for activity against cat fleas: 500 g/ha, after 48 h. The essentials: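 Test tubes coated from acetone solutions by rotation, top concentration 500 g/ha (500 μg/dm^2) on tube surface, serial 1:5 dilutions. 10-20 CO2-anesthetized adult fleas held at room temperature for 24 and 48 h. Activity scored versus acetone control: knock-down or death of all fleas = 100%.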

The subject of assay [2] is larvae of the mustard beetle (Phaedon cochleariae). In words: Phaedon test (PHAECO spray treatment). Particulars: 500 g/ha, spray, after 7 days; for pest or weed control at 500 g/ha: Phaedon cochleariae, 168 h, read-out: activity (beetle larvae killed). The essentials: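 Mustard beetle larvae were placed on dried Brassica pekinensis leaf discs previously spray-treated with test compound; formulation used acetone and dimethylformamide solvents plus alkylaryl polyglycol ether emulsifier, diluted with emulsifier-containing water.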

In assay [3] the test system is caterpillars of the army worm (Spodoptera frugiperda). In words: Spodoptera frugiperda test (SPODFR spray treatment). Particulars: 500 g/ha, spray, after 7 days; for pest or weed control at 500 g/ha: Spodoptera frugiperda, 168 h, read-out: activity (caterpillars killed). Put shortly:
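Activity in % read 7 days after armyworm caterpillars were placed on dried, sprayed Zea mays leaf discs; 0% means none killed. Spray prepared from an acetone/DMF concentrate with emulsifier, diluted with emulsifier-containing water.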

The test system of assay [4] is green peach aphid (Myzus persicae). In words: Myzus test (MYZUPE spray treatment). To be noted: 500 g/ha, spray, after 6 days; for pest or weed control at 500 g/ha: Myzus persicae, 144 h, read-out: activity (aphids killed). The essentials: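 Activity read as % aphid kill 6 days after treatment (0% = none killed). Compound formulated in acetone and dimethylformamide plus alkylaryl polyglycol ether, diluted in water and sprayed onto infested Brassica pekinensis leaf discs.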

Assay [5] concerns greenhouse red spider mite (Tetranychus urticae). In words: Tetranychus test; OP-resistant (TETRUR spray treatment). Particulars: 500 g/ha, spray, after 6 days; for pest or weed control at 500 g/ha: Tetranychus urticae, 144 h, read-out: activity (spider mites killed). Put shortly: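 Activity, as % of mites killed (0–100%), was assessed 6 days after spraying. The spray was compound formulated with acetone, DMF and emulsifier, then diluted in water. It was applied to Phaseolus vulgaris leaf discs carrying every life stage of an OP-resistant spider mite strain.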

In another assay the test system is Aedes aegypti. In words: Aedes test (AEDSAE surface treatment). Particulars: for knock-down activity: 100 mg/m^2, two hours after contact, exposition 30 minutes; for mortality at 100 mg/m2: Aedes aegypti, read-out: activity (mortality in %); for Kill rate in % after 24 h: active compound concentration 1.6 g/ha. The essentials: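 Adults were held 30 minutes on glazed tiles carrying a dried acetone deposit of compound (2 mg/ml solution). Readouts: percent knock-down 2 h after contact, percent mortality 24 h after contact, where 0% means no mosquitoes killed.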

The next assay relates to Culex quinquefasciatus. The assay can be described thus: whole plant or invertebrate. To be noted: for knock-down activity: 100 mg/m^2, two hours after contact, exposition 30 minutes; for mortality at 100 mg/m2: Culex quinquefasciatus, read-out: activity (mortality in %). Here is the method:
Culex Test (CULXFA Surface Treatment) Solvent: Acetone
To produce a suitable preparation of active compound, the active compound is dissolved in acetone (2 mg/ml). The active compound preparation is pipetted onto a glazed tile and, after drying, adult mosquitoes of the species Culex quinquefasciatus are placed onto the treated tile. The exposition time is 30 minutes.
Two hours after contact to the treated surface, the knock-down proportion of the test animals in % is determined.
24 hours after contact to the treated surface, the mortality in % is determined. Here, 100% means that all mosquitoes have been killed; 0% means that none of the mosquitoes has been killed.

As for `Cc1ccc(N=C2C(=CSc3ccc(C)cc3)CCc3ccccc32)cc1` [Example 1-28], in the assay on Boophilus microplus, the “activity (100% = none of the ticks has laid any fertile eggs)” value is 100%. Moreover, the “activity (kill in %)” value with Musca domestica is on record as 80%. Also, the “activity against cat fleas” value in [1] is on record as 100%. The “activity (beetle larvae killed)” value in [2] is listed as 100%. The “activity (caterpillars killed)” value in [3] was 100%. In addition, the “activity (aphids killed)” value in [4] worked out at 90%. In addition, the “activity (spider mites killed)” value in [5] is reported as 100%. Further, the results for the knock-down activity in the assay with Aedes aegypti and in the assay with Culex quinquefasciatus were 80% and 95%, respectively.

Consider `Cc1ccc(N=C2C(=CSc3ccc(F)cc3)CSc3ccccc32)cc1` [Example 1-35], for which the “activity (100% = none of the ticks has laid any fertile eggs)” value in the assay with Boophilus microplus amounted to 100%. Further, the “activity against cat fleas” value in [1] was 100%. Also, the pest or weed control at 500 g/ha in [2], in assay [3], in assay [4] and in [5] was 100% in each case. This molecule yielded a knock-down activity in the assay on Aedes aegypti of 90%. For the same molecule, the mortality at 100 mg/m2 in the assay on Aedes aegypti and in the assay on Culex quinquefasciatus was 100% in each case. In addition, the “Kill rate in % after 24 h” value with Aedes aegypti is recorded as 100%.

As to `Cc1ccc(N=C2C(=CSc3ccc(F)cc3)CCc3ccccc32)cc1` [Example 1-9], the “activity (100% = none of the ticks has laid any fertile eggs)” value in the assay on Boophilus microplus is reported as 100%. The “activity (kill in %)” value in the assay on Musca domestica is listed as 90%. In addition, in assay [1], the “activity against cat fleas” value is on record as 100%. In addition, the “Kill rate in % after 2 days” value in assay [1] (active compound concentration 0.032 g/ha) came to 100%. Also, the pest or weed control at 500 g/ha in assay [2], in assay [3], in assay [4] and in assay [5] was 100% throughout. The knock-down activity in the assay with Aedes aegypti and in the assay on Culex quinquefasciatus was 100% in each case. In addition, the mortality at 100 mg/m2 in the assay with Aedes aegypti and in the assay with Culex quinquefasciatus was 100% throughout. For the same molecule, the “Kill rate in % after 24 h” value in the assay with Aedes aegypti came out at 75%.

Consider `Cc1ccc(N=C2C(=CSc3ccc(F)cc3)CCc3cc(F)ccc32)cc1` [Example 1-16], for which the “activity (100% = none of the ticks has laid any fertile eggs)” value with Boophilus microplus stood at 100%. Besides, the “Kill rate in % after 7 days” value with Boophilus microplus (active compound concentration 0.16 μg/animal) was 90%. The “activity (kill in %)” value in the assay on Musca domestica is 80%. Further, the “activity against cat fleas” value in assay [1] is 100%. Besides, the pest or weed control at 500 g/ha in [2], in assay [3], in assay [4] and in assay [5] was 100% throughout. The knock-down activity in the assay with Aedes aegypti is 100%; in the assay with Culex quinquefasciatus, 95%. The mortality at 100 mg/m2 in the assay with Aedes aegypti and in the assay on Culex quinquefasciatus was 100% throughout. Further, in the assay on Aedes aegypti, the “Kill rate in % after 24 h” value is 90%.

Consider `Cc1ccc(N=C2C(=CSc3ccc(F)cc3)C(C)c3ccccc32)cc1` (stereo not shown) [Example 1-57], for which the “activity (100% = none of the ticks has laid any fertile eggs)” value in the assay with Boophilus microplus is 100%. Also, the “activity (kill in %)” value in the assay with Musca domestica worked out at 85%. Also, the “activity against cat fleas” value in assay [1] was 100%. Besides, the pest or weed control at 500 g/ha in [2], in assay [3], in assay [4] and in assay [5] was 100% throughout. Moreover, the knock-down activity in the assay on Aedes aegypti was found to be 100%. The mortality at 100 mg/m2 in the assay on Aedes aegypti and in the assay on Culex quinquefasciatus was 100% throughout.

For the origin of these results see patent US9055743B2, “Alpha, beta-unsaturated imines” (BAYER INTELLECTUAL PROPERTY GMBH, priority 2010, dated 2015).
